From patent US20050009840A1 (SUGEN, INC., priority 2003, published 2005)

target: T1, HGFR (Homo sapiens, UniProt P08581); assay: HGFR continuous-coupled spectrophotometric assay; type: biochemical; conditions: at 50 nM; Table 5, library procedure 40; read-out: % inhibition (percent c-MET inhibition)
T1 construct: purchased Upstate 14-526
T1 sequence (P08581 974-1390 limits assumed): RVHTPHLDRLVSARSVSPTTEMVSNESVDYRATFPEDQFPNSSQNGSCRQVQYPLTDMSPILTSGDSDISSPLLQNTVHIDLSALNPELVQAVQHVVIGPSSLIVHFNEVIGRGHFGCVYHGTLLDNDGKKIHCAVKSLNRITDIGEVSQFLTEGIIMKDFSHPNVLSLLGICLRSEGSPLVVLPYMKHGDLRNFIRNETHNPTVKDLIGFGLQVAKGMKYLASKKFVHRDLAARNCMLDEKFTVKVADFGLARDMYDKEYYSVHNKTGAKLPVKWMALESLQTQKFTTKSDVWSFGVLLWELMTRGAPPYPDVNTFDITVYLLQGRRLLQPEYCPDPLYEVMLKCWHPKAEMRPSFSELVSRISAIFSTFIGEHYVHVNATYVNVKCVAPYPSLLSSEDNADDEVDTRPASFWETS

Row | inhibition at 0.05 µM [%] | SMILES
1 | 51 | CC(Oc1cc(-c2ccc(C(=O)NCCc3cccc(C(F)(F)F)c3)cc2)cnc1N)c1c(Cl)ccc(F)c1Cl [Example L-94]
2 | 61 | CC(Oc1cc(-c2ccc(C(=O)NC[C@@H]3CCCO3)cc2)cnc1N)c1c(Cl)ccc(F)c1Cl (stereo partly drawn) [Example L-96]
3 | 60 | C[C@H](Oc1cc(-c2ccc(C(=O)NC[C@H]3CCCO3)cc2)cnc1N)c1c(Cl)ccc(F)c1Cl [Example L-97]
4 | 83 | CC(Oc1cc(-c2ccc(C(=O)N(C)CC#N)cc2)cnc1N)c1c(Cl)ccc(F)c1Cl [Example L-99]
5 | 79 | C[C@H](Oc1cc(-c2ccc(C(=O)NC[C@@H](C)O)cc2)cnc1N)c1c(Cl)ccc(F)c1Cl [Example L-101]
6 | 82 | CNC(=O)c1ccc(-c2cnc(N)c(OC(C)c3c(Cl)ccc(F)c3Cl)c2)cc1 [Example L-102]
7 | 91 | CC(Oc1cc(-c2ccc(C(=O)N3CCOCC3)cc2)cnc1N)c1c(Cl)ccc(F)c1Cl [Example L-103]
8 | 89 | CC(Oc1cc(-c2ccc(C(=O)N(C)CCO)cc2)cnc1N)c1c(Cl)ccc(F)c1Cl [Example L-104]
9 | 89 | CC(Oc1cc(-c2ccc(C(=O)NCCO)cc2)cnc1N)c1c(Cl)ccc(F)c1Cl [Example L-106]
10 | 87 | CC(=O)N[C@@H]1CCN(C(=O)c2ccc(-c3cnc(N)c(OC(C)c4c(Cl)ccc(F)c4Cl)c3)cc2)C1 (stereo partly drawn) [Example L-107]
11 | 70 | CCOCCCNC(=O)c1ccc(-c2cnc(N)c(OC(C)c3c(Cl)ccc(F)c3Cl)c2)cc1 [Example L-108]
12 | 76 | CC(Oc1cc(-c2ccc(C(=O)NCCC#N)cc2)cnc1N)c1c(Cl)ccc(F)c1Cl [Example L-109]
13 | 71 | CC(C)NC(=O)c1ccc(-c2cnc(N)c(OC(C)c3c(Cl)ccc(F)c3Cl)c2)cc1 [Example L-110]
14 | 71 | CC(Oc1cc(-c2ccc(C(=O)NCCc3ccncc3)cc2)cnc1N)c1c(Cl)ccc(F)c1Cl [Example L-111]
15 | 85 | CC(Oc1cc(-c2ccc(C(=O)N(C)CCN(C)C)cc2)cnc1N)c1c(Cl)ccc(F)c1Cl [Example L-112]
16 | 57 | COc1cc(CNC(=O)c2ccc(-c3cnc(N)c(OC(C)c4c(Cl)ccc(F)c4Cl)c3)cc2)cc(OC)c1 [Example L-113]
17 | 63 | CCCCN(C)C(=O)c1ccc(-c2cnc(N)c(OC(C)c3c(Cl)ccc(F)c3Cl)c2)cc1 [Example L-115]
18 | 62 | CC(C)OCCCNC(=O)c1ccc(-c2cnc(N)c(OC(C)c3c(Cl)ccc(F)c3Cl)c2)cc1 [Example L-116]
19 | 60 | CC(C)CNC(=O)c1ccc(-c2cnc(N)c(OC(C)c3c(Cl)ccc(F)c3Cl)c2)cc1 [Example L-117]
20 | 86 | CCN(CCN(C)C)C(=O)c1ccc(-c2cnc(N)c(OC(C)c3c(Cl)ccc(F)c3Cl)c2)cc1 [Example L-118]
21 | 63 | CCOCCNC(=O)c1ccc(-c2cnc(N)c(OC(C)c3c(Cl)ccc(F)c3Cl)c2)cc1 [Example L-120]
22 | 75 | CC(Oc1cc(-c2ccc(C(=O)NCc3ccc(CN(C)C)cc3)cc2)cnc1N)c1c(Cl)ccc(F)c1Cl [Example L-121]
23 | 61 | CC(Oc1cc(-c2ccc(C(=O)NCC3CC3)cc2)cnc1N)c1c(Cl)ccc(F)c1Cl [Example L-122]

Row | inhibition at 0.05 µM [%] | SMILES
24 | 80 | CC(Oc1cc(-c2ccc(C(=O)N3CCC(N(C)C)C3)cc2)cnc1N)c1c(Cl)ccc(F)c1Cl [Example L-123]
25 | 77 | CC(Oc1cc(-c2ccc(C(=O)N(C)C)cc2)cnc1N)c1c(Cl)ccc(F)c1Cl [Example L-125]
26 | 52 | CCN(C)C(=O)c1ccc(-c2cnc(N)c(OC(C)c3c(Cl)ccc(F)c3Cl)c2)cc1 [Example L-126]
27 | 82 | CCCN1CCN(C(=O)c2ccc(-c3cnc(N)c(OC(C)c4c(Cl)ccc(F)c4Cl)c3)cc2)CC1 [Example L-129]
28 | 60 | CC(Oc1cc(-c2ccc(C(=O)N(C)C3CCCC3)cc2)cnc1N)c1c(Cl)ccc(F)c1Cl [Example L-130]
29 | 61 | Cc1ccnc(NC(=O)c2ccc(-c3cnc(N)c(OC(C)c4c(Cl)ccc(F)c4Cl)c3)cc2)c1 [Example L-131]
30 | 68 | CC(Oc1cc(-c2ccc(C(=O)NCCc3cccnc3)cc2)cnc1N)c1c(Cl)ccc(F)c1Cl [Example L-133]
31 | 76 | CC(Oc1cc(-c2ccc(C(=O)N3CCN(C(C)C)CC3)cc2)cnc1N)c1c(Cl)ccc(F)c1Cl [Example L-134]
32 | 76 | COCCN1CCN(C(=O)c2ccc(-c3cnc(N)c(OC(C)c4c(Cl)ccc(F)c4Cl)c3)cc2)CC1 [Example L-135]
33 | 61 | CC(Oc1cc(-c2ccc(C(=O)N3CCC(C(=O)c4ccccc4)CC3)cc2)cnc1N)c1c(Cl)ccc(F)c1Cl [Example L-136]
34 | 78 | CCN(CC)CCN1CCN(C(=O)c2ccc(-c3cnc(N)c(OC(C)c4c(Cl)ccc(F)c4Cl)c3)cc2)CC1 [Example L-137]
35 | 83 | CC(CN(C)C)NC(=O)c1ccc(-c2cnc(N)c(OC(C)c3c(Cl)ccc(F)c3Cl)c2)cc1 [Example L-138]
36 | 60 | CC1CCC(NC(=O)c2ccc(-c3cnc(N)c(OC(C)c4c(Cl)ccc(F)c4Cl)c3)cc2)CC1 [Example L-139]
37 | 141 | CC(C)OCCNC(=O)c1ccc(-c2cnc(N)c(OC(C)c3c(Cl)ccc(F)c3Cl)c2)cc1 [Example L-140]
38 | 79 | CC(Oc1cc(-c2ccc(C(=O)N3CCC(CO)CC3)cc2)cnc1N)c1c(Cl)ccc(F)c1Cl [Example L-141]
39 | 72 | CC(Oc1cc(-c2ccc(C(=O)N3CCC(CCO)CC3)cc2)cnc1N)c1c(Cl)ccc(F)c1Cl [Example L-142]
40 | 59 | CC(C)CN(C)C(=O)c1ccc(-c2cnc(N)c(OC(C)c3c(Cl)ccc(F)c3Cl)c2)cc1 [Example L-143]
41 | 71 | Cc1cccc(CN(C)C(=O)c2ccc(-c3cnc(N)c(OC(C)c4c(Cl)ccc(F)c4Cl)c3)cc2)n1 [Example L-144]
42 | 77 | COC(=O)CN(C)C(=O)c1ccc(-c2cnc(N)c(OC(C)c3c(Cl)ccc(F)c3Cl)c2)cc1 [Example L-145]
43 | 89 | CC(Oc1cc(-c2ccc(C(=O)N3CCN(CC(=O)N(C)C)CC3)cc2)cnc1N)c1c(Cl)ccc(F)c1Cl [Example L-146]
44 | 96 | CC(Oc1cc(-c2ccc(C(=O)N3CCN(C4CCN(C)CC4)CC3)cc2)cnc1N)c1c(Cl)ccc(F)c1Cl [Example L-147]
45 | 62 | CC(Oc1cc(-c2ccc(C(=O)NCc3ccc(C(F)(F)F)nc3)cc2)cnc1N)c1c(Cl)ccc(F)c1Cl [Example L-148]
46 | 81 | CC(Oc1cc(-c2ccc(C(=O)NCCCc3c[nH]nc3O)cc2)cnc1N)c1c(Cl)ccc(F)c1Cl [Example L-150]

Row | inhibition at 0.05 µM [%] | SMILES
47 | 58 | CC(Oc1cc(-c2ccc(C(=O)N3CCC(Oc4ccccc4)CC3)cc2)cnc1N)c1c(Cl)ccc(F)c1Cl [Example L-151]
48 | 95 | CC(Oc1cc(-c2ccc(C(=O)N3CCS(=O)(=O)CC3)cc2)cnc1N)c1c(Cl)ccc(F)c1Cl [Example L-153]
49 | 77 | CC(Oc1cc(-c2ccc(C(=O)NCCN3[C@H](C)CCC[C@@H]3C)cc2)cnc1N)c1c(Cl)ccc(F)c1Cl (stereo partly drawn) [Example L-154]
50 | 66 | CC(Oc1cc(-c2ccc(C(=O)NCC3(N(C)C)CCOCC3)cc2)cnc1N)c1c(Cl)ccc(F)c1Cl [Example L-155]
51 | 73 | CC(Oc1cc(-c2ccc(C(=O)NC3CCOCC3)cc2)cnc1N)c1c(Cl)ccc(F)c1Cl [Example L-156]
52 | 77 | C#CCCN1CCN(C(=O)c2ccc(-c3cnc(N)c(OC(C)c4c(Cl)ccc(F)c4Cl)c3)cc2)CC1 [Example L-157]
53 | 63 | CC(Oc1cc(-c2ccc(C(=O)Nc3ccc(-n4ccnc4)cc3)cc2)cnc1N)c1c(Cl)ccc(F)c1Cl [Example L-158]
54 | 78 | CC(Oc1cc(-c2ccc(C(=O)NCC(c3cccnc3)N(C)C)cc2)cnc1N)c1c(Cl)ccc(F)c1Cl [Example L-159]
55 | 79 | CC(Oc1cc(-c2ccc(C(=O)N3CCC(c4cccnc4)C3)cc2)cnc1N)c1c(Cl)ccc(F)c1Cl [Example L-161]
56 | 66 | CC(Oc1cc(-c2ccc(C(=O)NCCC3CCOCC3)cc2)cnc1N)c1c(Cl)ccc(F)c1Cl [Example L-162]
57 | 83 | CC(Oc1cc(-c2ccc(C(=O)N3CCN(CCS(C)(=O)=O)CC3)cc2)cnc1N)c1c(Cl)ccc(F)c1Cl [Example L-163]
58 | 61 | CC(Oc1cc(-c2ccc(C(=O)NC(CO)c3cccnc3)cc2)cnc1N)c1c(Cl)ccc(F)c1Cl [Example L-164]
59 | 88 | CC(Oc1cc(-c2ccc(C(=O)N3CCN(CC4CCN(C)CC4)CC3)cc2)cnc1N)c1c(Cl)ccc(F)c1Cl [Example L-165]
60 | 67 | CC(Oc1cc(-c2ccc(C(=O)NCCc3nc(-c4ccncc4)c[nH]3)cc2)cnc1N)c1c(Cl)ccc(F)c1Cl [Example L-166]
61 | 66 | CCNC(=O)c1ccc(-c2cnc(N)c(OC(C)c3c(Cl)ccc(F)c3Cl)c2)cc1 [Example L-167]
62 | 90 | CC(Oc1cc(-c2ccc(C(=O)N3CCNC(=O)C3)cc2)cnc1N)c1c(Cl)ccc(F)c1Cl [Example L-168]
63 | 79 | COC1CCN(C(=O)c2ccc(-c3cnc(N)c(OC(C)c4c(Cl)ccc(F)c4Cl)c3)cc2)CC1 [Example L-169]
64 | 77 | CC(Oc1cc(-c2ccc(C(=O)NCCCN(C)C3CCCCC3)cc2)cnc1N)c1c(Cl)ccc(F)c1Cl [Example L-170]
65 | 69 | CC(Oc1cc(-c2ccc(C(=O)NCCN(C)C3CCCCC3)cc2)cnc1N)c1c(Cl)ccc(F)c1Cl [Example L-171]
66 | 79 | CC(Oc1cc(-c2ccc(C(=O)N3CCC(CO)C3)cc2)cnc1N)c1c(Cl)ccc(F)c1Cl [Example L-172]
67 | 63 | CC(Oc1cc(-c2ccc(C(=O)NCC3CCOCC3)cc2)cnc1N)c1c(Cl)ccc(F)c1Cl [Example L-173]
